Data published in patent US20100144802A1, “Small Molecule Inhibitors for Immune Modulation” (priority 2007, published 2010).

Assays:
[1] = mouse, in vivo
Experimental: (§1) FIG. 1 depicts the novel small molecule inhibitor, WP1066, that inhibits Stat-3 activity and has significant central nervous system (CNS) and glioma tumor penetration in vitro and in vivo. FIG. 1A provides the chemical structure of WP1066. […] WP1066 was injected intraperitoneally (IP) at doses of 100 mg/kg every other day for two weeks in nude mice. Specifically, plasma, CNS tissue, and U87-MG flank tumors were harvested and, after extraction, were analyzed for WP1066 content using tandem liquid chromatography/mass spectrometry. […] Cells were stained with fluorescently-labeled anti-CD3 and anti-CD11b antibodies, and propidium iodide (PI) and analyzed by flow cytometry. Macrophages and T cells were gated on CD11b^+ and CD3^+ populations, respectively, and cell death (%) was quantified as CD11b^+PI^+ or CD3^+PI^+ populations in the respective plots. Plots represent the 5 μM maximum dose (clear histogram) compared to control untreated cells (shaded histogram) incubated under similar conditions.

[2] = Plasma concentration after oral administration; assay type: in vivo; details: mice
Description: Patients with malignant human gliomas have a preponderance of immunosuppressive cytokines, a lack of effector/activated T cells, enhanced regulatory T cells (Tregs), and inadequate antigen-presentation functional activity, contributing to their profound immunosuppression. Known immune stimulators within these patients are insufficient to overcome these influences. Therefore, we investigated whether a pharmacological derivative of the natural compound, caffeic acid (WP1066)(FIG. 1A), a small molecule inhibitor of Stat-3 activity, can (in physiologically relevant doses) attenuate these suppressed immune responses.

[3] = biological target: T1, Stat-3 (Homo sapiens, UniProt P40763); assay: Phosphorylated Stat-3 by intracellular staining and flow cytometry in PBMCs; assay type: cell-based; details: doses achievable in vivo (1 nM-5 μM)
T1 construct: normal donor peripheral blood mononuclear cells (PBMCs) were assessed for phosphorylated Stat-3 activity; endogenous in cells; host or cells: normal donor peripheral blood mononuclear cells (PBMCs)
T1 sequence (P40763 whole entry): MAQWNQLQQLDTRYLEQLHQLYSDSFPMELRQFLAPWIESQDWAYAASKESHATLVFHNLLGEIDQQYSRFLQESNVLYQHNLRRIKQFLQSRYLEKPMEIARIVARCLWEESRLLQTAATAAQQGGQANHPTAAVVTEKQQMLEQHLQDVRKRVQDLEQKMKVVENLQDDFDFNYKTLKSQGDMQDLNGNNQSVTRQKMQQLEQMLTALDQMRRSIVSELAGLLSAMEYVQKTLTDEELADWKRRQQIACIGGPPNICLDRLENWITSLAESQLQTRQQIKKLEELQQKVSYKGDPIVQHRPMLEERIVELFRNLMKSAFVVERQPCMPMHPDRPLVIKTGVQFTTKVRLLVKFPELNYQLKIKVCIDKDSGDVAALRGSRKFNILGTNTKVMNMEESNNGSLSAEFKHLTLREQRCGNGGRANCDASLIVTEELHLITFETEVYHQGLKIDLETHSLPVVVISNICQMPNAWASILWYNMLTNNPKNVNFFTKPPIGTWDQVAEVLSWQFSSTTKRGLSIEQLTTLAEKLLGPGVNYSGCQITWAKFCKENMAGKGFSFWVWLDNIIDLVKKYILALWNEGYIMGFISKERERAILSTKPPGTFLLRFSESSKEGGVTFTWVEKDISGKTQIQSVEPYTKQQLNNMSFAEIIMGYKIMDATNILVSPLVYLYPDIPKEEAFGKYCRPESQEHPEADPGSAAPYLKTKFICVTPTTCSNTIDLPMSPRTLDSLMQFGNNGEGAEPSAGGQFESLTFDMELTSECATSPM

[4] = system: normal donor PBMCs; assay: Cell death (propidium iodide) of macrophages and T cells in PBMCs; assay type: cell-based, human; details: 1 nM-5 μM, 2 and 4 hours
Experimental: as §1

[5] = system: CD80 and CD86; assay: Costimulatory molecule expression (CD80, CD86) by flow cytometry; assay type: cell-based, human
Experimental: (§2) PBMCs from normal human donors (n=5) were incubated for 24 hrs at 37° C., 5% CO2, in either medium (RPMI 1640+10% fetal bovine serum) or medium supplemented with 5 μM WP1066. Cells were then stained with fluorescent antibodies to CD11b and either CD80 or CD86 and analyzed by flow cytometry. Glioma-infiltrating microglia were purified from freshly resected GBM patient tumor tissue (n=3) and incubated in either medium or medium supplemented with WP1066 (1 μM). After incubation, microglia (CD11b^+/CD45^+) were double stained with fluorescent antibodies to CD11b and either CD80 or CD86, and analyzed by flow cytometry. Numbers in the upper right quadrant of each graph denote the percentage of CD11b^+ gated cells that express either CD80 or CD86. […] Cells were then labeled with CD11b/CD14 macrophage markers and stained and analyzed for intracellular cytokine production. Percentages of macrophages that were CD11b^+/CD14^+ and also positive for the respective cytokine were calculated by flow cytometry analysis. A scatter plot representative of all samples analyzed for macrophage intracellular cytokine production was determined with LPS-treated cells (circles) and WP1066-treated cells (diamonds). The black bars denote the mean values of each subgroup, p values determining statistical significance between LPS-stimulated groups and WP1066-stimulated groups were determined using Student's t test (NS, not statistically significant). […] Carboxyfluoroscein succinimidyl ester (CFSE)-labeled CD8^+ T cells isolated from newly diagnosed GBM patients were incubated with untreated autologous APCs (CD11b^+/CD14^+) and anti-CD3 antibody, with anti-CD3 antibody+anti-CD28 antibody, and with LPS-treated (5 μg/mL) autologous APCs or WP1066-treated (1 μM) autologous APCs. In all cases, cells were incubated for 4 days at 37° C., 5% CO2, followed by surface staining for T cell markers (CD3, CD8) and analysis by flow cytometry. […] Purity of all cell populations was determined to be at least 97% by flow cytometry. […]

[6] = system: macrophages; assay: Macrophage intracellular cytokine production by flow cytometry; assay type: cell-based, human; details: 4 hrs
Experimental: PBMCs from normal human donors (n=5) were incubated for 24 hrs at 37° C., 5% CO2, in either medium (RPMI 1640+10% fetal bovine serum) or medium supplemented with 5 μM WP1066. Cells were then stained with fluorescent antibodies to CD11b and either CD80 or CD86 and analyzed by flow cytometry. Glioma-infiltrating microglia were purified from freshly resected GBM patient tumor tissue (n=3) and incubated in either medium or medium supplemented with WP1066 (1 μM). After incubation, microglia (CD11b^+/CD45^+) were double stained with fluorescent antibodies to CD11b and either CD80 or CD86, and analyzed by flow cytometry. Numbers in the upper right quadrant of each graph denote the percentage of CD11b^+ gated cells that express either CD80 or CD86. […] Cells were then labeled with CD11b/CD14 macrophage markers and stained and analyzed for intracellular cytokine production. Percentages of macrophages that were CD11b^+/CD14^+ and also positive for the respective cytokine were calculated by flow cytometry analysis. A scatter plot representative of all samples analyzed for macrophage intracellular cytokine production was determined with LPS-treated cells (circles) and WP1066-treated cells (diamonds). The black bars denote the mean values of each subgroup, p values determining statistical significance between LPS-stimulated groups and WP1066-stimulated groups were determined using Student's t test (NS, not statistically significant). […] Carboxyfluoroscein succinimidyl ester (CFSE)-labeled CD8^+ T cells isolated from newly diagnosed GBM patients were incubated with untreated autologous APCs (CD11b^+/CD14^+) and anti-CD3 antibody, with anti-CD3 antibody+anti-CD28 antibody, and with LPS-treated (5 μg/mL) autologous APCs or WP1066-treated (1 μM) autologous APCs. In all cases, cells were incubated for 4 days at 37° C., 5% CO2, followed by surface staining for T cell markers (CD3, CD8) and analysis by flow cytometry. The number on each plot indicates the percentage of CD8^+ gated cells that have undergone cell division via CFSE dilution. […] For (A-C), modified Percoll density gradient (1.083 g/mL) centrifugation was used to isolate PBMCs of both GBM patients and normal donors. CD8+ T cells were isolated by magnetic bead separation and then labeled with CFSE. Autologous APCs were purified from the above density gradient buffy-coat layer by negative selection, using a monocyte bead isolation kit and magnetic separation column. Purity of all cell populations was determined to be at least 97% by flow cytometry. Autologous microglia/macrophages from GBM patients were purified from freshly resected human glioma/brain tissue using a modified Percoll gradient isolation technique. All APCs were treated with the respective stimulants (control medium alone, LPS, or WP1066) for 24 hours and then washed prior to incubation with T cells in the proliferation assay. […] T cells from the same patients were isolated with human CD3 microbeads and a magnetic separation column, with the exception of one patient who lacked sufficient PBMCs for both monocyte and T cell isolations. Monocytes or T cells seeded at a density of 1×10^6 cells per well in 6-well culture plates and were incubated at 37° C., 5% CO2, with either the medium or medium supplemented with 5 μM WP1066. After 2 hours, monocytes and T cells were stimulated for 5 minutes with 2 μg/mL LPS and 5 μg/mL anti-CD3 antibody, respectively, in the presence or absence of WP1066. […]

[7] = system: T cells isolated from peripheral blood of GBM patients; assay: T cell proliferation (CFSE dilution) with treated antigen-presenting cells; assay type: cell-based, human; details: GBM patient T cells with treated macrophages/APCs; WP1066 1 μM, LPS 5 μg/mL, 4 days
Experimental: PBMCs from normal human donors (n=5) were incubated for 24 hrs at 37° C., 5% CO2, in either medium (RPMI 1640+10% fetal bovine serum) or medium supplemented with 5 μM WP1066. Cells were then stained with fluorescent antibodies to CD11b and either CD80 or CD86 and analyzed by flow cytometry. Glioma-infiltrating microglia were purified from freshly resected GBM patient tumor tissue (n=3) and incubated in either medium or medium supplemented with WP1066 (1 μM). After incubation, microglia (CD11b^+/CD45^+) were double stained with fluorescent antibodies to CD11b and either CD80 or CD86, and analyzed by flow cytometry. […] Cells were then labeled with CD11b/CD14 macrophage markers and stained and analyzed for intracellular cytokine production. Percentages of macrophages that were CD11b^+/CD14^+ and also positive for the respective cytokine were calculated by flow cytometry analysis. A scatter plot representative of all samples analyzed for macrophage intracellular cytokine production was determined with LPS-treated cells (circles) and WP1066-treated cells (diamonds). The black bars denote the mean values of each subgroup, p values determining statistical significance between LPS-stimulated groups and WP1066-stimulated groups were determined using Student's t test (NS, not statistically significant). […] Purity of all cell populations was determined to be at least 97% by flow cytometry. […]

[8] = system: monocytes isolated from GBM patients; assay: Immunoblotting of signaling proteins in GBM patient monocytes; assay type: cell-based, human; details: 5 μM
Experimental: (§3) To determine how WP1066 induces these potent immune responses, T cells and monocytes isolated from GBM patients were treated with WP1066 and subsequently lysed and analyzed by immunoblotting for critical signaling proteins. […] The tyrosine phosphorylation of Syk initiates downstream signaling events during human monocyte activation, whereas the phosphorylation of Tyr319 in Zap-70 plays a critical role in mediating T cell activation via signaling through the T cell receptor. Raeder, E. M. et al. J Immunol 163, 6785-93 (1999); Williams, B. L. et al. EMBO 18, 1832-1844 (1999). Both Syk and ZAP-70 can be phosphorylated through autophosphorylation and transphosphorylation. […] The tyrosine phosphorylation of critical signaling proteins induced/enhanced by WP1066 are likely pivotal to the WP1066-induced restoration of immune function in GBM patients and explains the mechanisms of potent immune activation.
as §2, with “APCs.” for “APCs. In all cases, cells were incubated for 4 days at 37° C., 5% CO2, followed by surface staining for T cell markers (CD3, CD8) and analysis by flow cytometry.”

[9] = system: T cells; assay: Immunoblotting of signaling proteins in GBM patient T cells; assay type: cell-based, human; details: 5 μM
Experimental: as §3
PBMCs from normal human donors (n=5) were incubated for 24 hrs at 37° C., 5% CO2, in either medium (RPMI 1640+10% fetal bovine serum) or medium supplemented with 5 μM WP1066. Cells were then stained with fluorescent antibodies to CD11b and either CD80 or CD86 and analyzed by flow cytometry. […] After incubation, microglia (CD11b^+/CD45^+) were double stained with fluorescent antibodies to CD11b and either CD80 or CD86, and analyzed by flow cytometry. […] Cells were then labeled with CD11b/CD14 macrophage markers and stained and analyzed for intracellular cytokine production. Percentages of macrophages that were CD11b^+/CD14^+ and also positive for the respective cytokine were calculated by flow cytometry analysis. A scatter plot representative of all samples analyzed for macrophage intracellular cytokine production was determined with LPS-treated cells (circles) and WP1066-treated cells (diamonds). The black bars denote the mean values of each subgroup, p values determining statistical significance between LPS-stimulated groups and WP1066-stimulated groups were determined using Student's t test (NS, not statistically significant). […]

[10] = system: intracerebral B16 cells; assay: Survival of C57BL/6J mice with established intracerebral tumors; assay type: in vivo
[11] = system: intracerebral B16; assay: Survival of nude mice with established intracerebral B16; assay type: in vivo
[12] = system: Foxp3; assay: Intracellular Foxp3 expression in iTreg differentiation and natural Tregs by flow cytometry; assay type: cell-based, C57BL/6J mice; details: 0, 0.1 and 1 μM, more than 96 hours
Experimental: CD4+CD25−CD62L^hi naïve T cells from C57BL/6J mice were stimulated by plate-bound anti-CD3 (2 μg/ml) and soluble anti-CD28 (2 μg/ml) antibodiesin the presence of TGF-β1 (1 ng/ml) plus hIL-2 (200 U/ml) with addition of different concentrations of WP1066 (0, 0.1, and 1 μM) for inducible Treg (iTreg) differentiation; CD4+CD25+ T cells (natural Tregs [nTreg]) were stimulated by plate-bound anti-CD3 (2 μg/ml) antibodies in the presence of hIL-2 (200 U/ml) with addition of different concentrations of WP1066 (0, 0.1, and 1 μM). More than 96 hours after stimulation, the cells were analyzed for intracellular Foxp3 expression using flow cytometry.

[13] = system: tumor cell types, including malignant gliomas; details: variety of tumor cell types; cited from earlier work
[14] = system: CD80 and CD86; details: cited from earlier work
[15] = normal donors and GBM patients, 5 μM

Question: Which results are given for `C[C@H](NC(=O)/C(C#N)=C/c1cccc(Br)n1)c1ccccc1` [WP1066]?
Answer: uptake of the compound by tumors versus other tissue [1]: higher drug content than any other tissue; central nervous system (CNS) concentrations ([1]; nude): 0.185 µM; concentrations in tumor ([1]; nude): 1070 nM; concentrations per gram of tumor ([1]; nude): 362 μg/gram; concentrations within orthotopic gliomas ([1]; nude): 1070 nM; plasma concentrations [2]: > 2000 nM; inhibition of Stat-3 within immune cells [3]: inhibit Stat-3; cell viability [4]: not compromised; CD80 and CD86 on tumor-infiltrating microglia/macrophages from GBM patients ([5]; 1 μM): capable of upregulating CD80 and CD86; CD80 and CD86 on normal donor PBMCs ([5]; 5 μM, 24 hrs): capable of upregulating CD80 and CD86; up regulation of costimulation in human monocytes ([5]; incubated with IL-10 and TGF-β (data not shown)): can be achieved; IL-2 induction from macrophages [6, 15]: induce; IL-4 induction from macrophages [6, 15]: induce; IL-12 induction from macrophages [6, 15]: induce; IL-15 induction from macrophages [6, 15]: induce; T cell proliferation [7]: potently induced T cell proliferation; tyrosine phosphorylation in monocytes and T cells ([8]; proteins of 70 to 75 KDa and 50 to 60 KDa, also T cells): induced or enhanced; levels of p57/p59-Hck ([8]; monocytes): increased; phospho-p72Syk (Tyr352) ([8]; monocytes): induced; total protein level of Syk ([8]; monocytes): didn't affect; levels of p56-Lck [9]: increased; phospho-ZAP-70 (Tyr319) [9]: induced; total protein level of ZAP-70 [9]: markedly decreased; immunological memory on rechallenge ([10]; animals surviving longer than 78 days, tumor cells into contralateral hemisphere): minimal immunological memory was induced; anti-tumor efficacy (survival) ([10]; established intracerebral B16 cells, oral gavage, compared with B16EGFRvIII model): Identical anti-tumor efficacy; efficacy after in vivo depletions of CD4+ and CD8+ T cells ([10]; established intracerebral syngeneic murine models): abrogates the efficacy; clinical effectiveness (survival) in immune incompetent background [11]: abrogates the clinical effectiveness; Foxp3 expression in natural Tregs [12]: downregulates Foxp3 expression; Foxp3 induction in peripheral T cells ([12]; iTreg differentiation): inhibits Foxp3 induction; proapoptotic activity [13]: proapoptotic activity

Question: Which “IL-1β levels compared with WP1066” value ([6]; LPS 5 μg/mL) does the source give for “lipopolysaccharide [LPS, reference compound]” here?
Answer: Its value is “significantly higher levels”.

Question: What about the T cell proliferation [7] of the same compound?
Answer: The T cell proliferation was “unable to induce any T cell proliferation”.

Question: What about the “up regulating costimulatory molecules on microglia isolated directly from GBM patients” value [14] of the same compound?
Answer: Its value is “totally insufficient”.
